Values joined by “and” are separate entries in the source; they are usually repeats but may differ in a detail not shown here. Identical values can stand only once.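 Results reflect a 48-hour exposure of cells in 96-well plates to compound at five concentrations. TGI is the concentration that stops growth completely.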 Where a SMILES comes first, the peptide text is derived from it. The star is where a group is joined. Cbz = O=C(OCc1ccccc1)*
Key:
Test in all cases: inhibition of tumour cell growth, NCI panel, 48 h
T-47D breast = system: T-47D breast
ACHN renal = system: ACHN renal
NCI-H23 lung = system: NCI-H23 lung
HS 578T breast = system: HS 578T breast
UACC-257 melanoma = system: UACC-257 melanoma

SMILES	TGI (T-47D breast)	TGI (ACHN renal)	TGI (NCI-H23 lung)	TGI (HS 578T breast)	TGI (UACC-257 melanoma)
CCOC(=O)C(C)NC(=O)C(C)NC(=O)C(C)NC(=O)C(C)NC(=O)C(C)NC(=O)C(C)NC(=O)C(C)NC(=O)OCc1ccccc1 (stereo not given) (Cbz-AAAAAAA-OEt; configuration not given here)	> 100 µM	> 100 µM	> 100 µM	> 100 µM	–
CSc1c(C#N)c2n(c3ccccc3[n+]2C)c2ncccc12	80 µM	> 100 µM	51.6 µM	> 100 µM	–
Cc1n[nH]c(=O)n1N=C(c1ccccc1)c1ccccc1	–	> 100 µM	> 100 µM	> 100 µM	> 100 µM
C[C@@H]1C(O)CC[C@H](C)C12CC=CC2=O (stereo not given in full)	> 100 µM	> 100 µM	> 100 µM	> 100 µM	> 100 µM
CC1(C)CCc2c(c(N=Nc3ccccc3)c3ccccc3c2O)O1	> 100 µM	33.5 µM	> 100 µM	> 100 µM	39.8 µM
CC1(C)CC(=O)c2c(nc3ccc4ccccc4c3c2-c2ccc(NC(=O)CCCCC(=O)Nc3ccc(-c4c5c(nc6ccc7ccccc7c46)CC(C)(C)CC5=O)cc3)cc2)C1	> 100 µM	> 100 µM	> 100 µM	> 100 µM	> 100 µM
O=C1OC(CN2CCN(c3ccccc3)CC2)CN1C(=S)Nc1ccccc1 (stereo not given)	> 100 µM	> 100 µM	> 100 µM	> 100 µM	> 100 µM
Cc1ccc(S(=O)(=O)N/N=C2\C=C[C@]3(CC2)C(=O)N(C)c2ccccc23)cc1	> 100 µM	> 100 µM	> 100 µM	> 100 µM	> 100 µM
CCOC(=O)c1nc2cc(C(F)(F)F)ccc2nc1Nc1ccc(Cl)c(Cl)c1	> 100 µM	> 100 µM	> 100 µM	> 100 µM	> 100 µM
S=C(Nc1ccc(Br)cn1)NC12CC3CC(CC(C3)C1)C2	> 100 µM	56.1 µM	38.9 µM	–	> 100 µM
c1ccc(-c2cc(-c3cc(-c4ccccc4)n(-c4ccccc4)n3)nn2-c2ccccc2)cc1	> 100 µM	> 100 µM	> 100 µM	> 100 µM	> 100 µM
CC(C)(C)C=C=C(C(C)(C)C)P(=O)(O)O	> 100 µM	> 100 µM	> 100 µM	> 100 µM	> 100 µM
CCC1(C)N=C(C(N)=O)c2ncn(N=C(C)C)c2N1 (stereo not given)	> 100 µM	> 100 µM	> 100 µM	> 100 µM	> 100 µM
C=CCn1c(=O)c(C)cn(/C(=C/C(=O)OCC)C(=O)OCC)c1=O	30.7 µM	21.2 µM	31.8 µM	76.1 µM	55.5 µM
CSCCCCCCCCCCOc1ccc(C=C2C(=C(C#N)C#N)c3ccccc3C2=C(C#N)C#N)cc1	51.4 µM	29.5 µM	48.9 µM	44.6 µM	35.4 µM
Fc1ccc(C(OCCN2CCC3CCC(C2)N3Cc2cc3ccccc3[nH]2)c2ccc(F)cc2)cc1 (stereo not given)	3.18 µM	4.07 µM	3.05 µM	4 µM	3.53 µM
N#Cc1c(NC(=S)NCc2ccccc2)sc2c1CCN(N1CCc3c(sc(NC(=S)NCc4ccccc4)c3C#N)C1)C2	> 100 µM	> 100 µM	> 100 µM	> 100 µM	> 100 µM
CC(C)[Si](OC1=CCCCCC12C(=O)N(C)c1ccccc12)(C(C)C)C(C)C (stereo not given)	21.3 µM	35.9 µM	46.1 µM	61.6 µM	45.8 µM
CC(=O)OC[C@@]12C[C@H]3C(=O)C(C)(C)C[C@H]3[C@]1(C)[C@@H](OC(C)=O)[C@]1(O)[C@H]([C@@H](OC(=O)c3ccccc3)[C@@H](C)[C@H]1OC(C)=O)[C@H]2OC(C)=O	> 20 µM	> 20 µM	> 20 µM	> 20 µM	> 20 µM
CN1C[C@@H]2CCCN2P1Oc1cccc2cccnc12 (stereo not given in full)	> 100 µM	> 100 µM	57.7 µM	68.1 µM	> 100 µM
NNC(=O)c1n[nH]nc1SSc1n[nH]nc1C(=O)NN	–	> 100 µM	> 100 µM	> 100 µM	> 100 µM
Cc1ccc(C2=Nc3c(N)nc(N)nc3NC(c3ccccc3)C2)cc1 (stereo not given)	28.2 µM and 32.6 µM	28.8 µM and 32 µM	24.1 µM and 25.6 µM	33.9 µM and 41.1 µM	24.6 µM and 32.4 µM
COc1ccc(NC2=NCCO2)c2ccccc12	> 10 µM	> 10 µM	–	> 10 µM	–

SMILES	TGI (T-47D breast)	TGI (ACHN renal)	TGI (NCI-H23 lung)	TGI (HS 578T breast)	TGI (UACC-257 melanoma)
COC(=O)C1=C(C)NC(C)=C([N+](=O)[O-])C1c1cccc(NO)c1 (stereo not given)	> 52.4 µM	> 44.9 µM	> 100 µM	38.6 µM	28.1 µM
COc1cc2c(cc1OC)CCN=C2	> 100 µM	–	> 100 µM	> 100 µM	> 100 µM
C=C(Cl)C(Cl)(CBr)CCC(Cl)C(C)(C)Cl (stereo not given)	–	3.9 µM	34.3 µM	0.284 µM	3.79 µM
O=C(O)CCC1(c2ccccc2)NC(=O)NC1=O (stereo not given)	> 100 µM	> 100 µM	> 100 µM	> 100 µM	> 100 µM
O=C(C1OC1c1ccc([N+](=O)[O-])cc1)C12CC3CC(CC(C3)C1)C2 (stereo not given)	37.3 µM	34 µM	27.2 µM	50.3 µM	30.9 µM
Cc1ccc(/C=N/Nc2ncccn2)s1	> 100 µM	> 100 µM	> 100 µM	> 100 µM	> 100 µM
COc1nc(=O)n(C2CC(N=[N+]=[N-])C(CO)O2)cc1C (stereo not given)	> 100 µM	> 100 µM	> 100 µM	> 100 µM	> 100 µM
CN1CCN(c2ccc3[nH]c(C4=C(O)c5nc(CO)n(C)c5C(=O)C4=O)nc3n2)CC1	> 100 µM	> 100 µM	> 100 µM	> 100 µM	> 100 µM
CN(/N=C\c1ccc2ccccc2c1)C1=NCCCCN1	> 100 µM	> 100 µM	> 100 µM	62.3 µM	33.7 µM
CCC(=O)NCCc1c[nH]c2ccc(OC)cc12	> 100 µM	> 100 µM	> 100 µM	> 100 µM	> 100 µM
C[C@@H]1OC(=O)C[C@H]2CC(=O)N(CCc3cn(S(=O)(=O)C(F)(F)F)c4ccccc34)C[C@@H]21	> 100 µM	> 100 µM	> 100 µM	> 100 µM	> 100 µM
O=C(NCc1ccccc1)c1cnc(Cl)cn1	> 100 µM	44.1 µM	87.4 µM	> 100 µM	> 100 µM
C#CCOC(=O)c1ccccc1OC(C)=O	> 100 µM	> 100 µM	> 100 µM	> 100 µM	> 100 µM
O=C1c2ccccc2C(=O)N1c1ccc(OCCN2CCCCC2)cc1	> 100 µM	> 100 µM	> 100 µM	> 100 µM	> 100 µM
COC/C=C\[C@@]1(O)CCCC[C@@H]1CC(OC)OC	> 100 µM	–	98.7 µM	> 100 µM	> 100 µM
CSC(=NCCN=C(NS(=O)(=O)c1ccc(Cl)cc1)SC)NS(=O)(=O)c1ccc(Cl)cc1	–	> 100 µM	> 100 µM	–	> 100 µM
NC(CCCCNc1ccn(C2OC(CO)C(O)C2O)c(=O)n1)C(=O)O (stereo not given)	> 100 µM	> 100 µM	–	> 100 µM	> 100 µM
N#Cc1c(-c2ccc(Cl)cc2)c(C#N)c(=O)n(NS(=O)(=O)c2ccccc2)c1-c1ccccc1	–	> 25 µM	–	–	> 25 µM
Nc1cccc(OCc2nc(N)nc(N)c2-c2ccc(Cl)cc2)c1	> 100 µM	> 100 µM	> 100 µM	> 100 µM	> 100 µM
NC(=O)N(O)c1cccc(Br)c1	> 100 µM	> 100 µM	> 100 µM	> 100 µM	> 100 µM
CC(C)(C)OC(=O)N1CCC23CCCC2C(=O)CC=C13 (stereo not given)	> 100 µM	> 100 µM	> 100 µM	> 100 µM	71.9 µM
O=C(O)c1ccccc1/C=N\NC1=NCCN1	> 100 µM	> 100 µM	> 100 µM	> 100 µM	> 100 µM
Cc1cccc2c1C(=O)C(C1OC(=O)c3ccccc31)C2 (stereo not given)	> 100 µM	> 100 µM	> 100 µM	> 100 µM	> 100 µM

SMILES	TGI (T-47D breast)	TGI (ACHN renal)	TGI (NCI-H23 lung)	TGI (HS 578T breast)	TGI (UACC-257 melanoma)
CC(C)[Si]1(C(C)C)OCC2OC(n3ccc(=O)[nH]c3=O)C(O)(CO)C2O[Si](C(C)C)(C(C)C)O1 (stereo not given)	30.2 µM	30.8 µM	12.5 µM	11.4 µM	28.7 µM
COC(=O)C1(Cc2cccc(Cl)c2)CCCCCCN1C(=O)c1ccccc1 (stereo not given)	37.4 µM	30 µM	51.1 µM	–	–
CCCCCCCSCC(O)COC(c1ccccc1)(c1ccccc1)c1ccccc1 (stereo not given)	> 100 µM	76.3 µM	60.3 µM	50.1 µM	> 100 µM
O=C(/C=C/c1ccc(O)c(O)c1)OCCOC(=O)/C=C/c1ccc(O)c(O)c1	51.2 µM	85.8 µM	> 100 µM	> 100 µM	44.5 µM
Cc1cc2c(-c3ccccc3)cc(=O)[nH]c2cc1N	> 100 µM	> 100 µM	> 100 µM	–	> 100 µM
CC(=O)c1cn(-c2ccc(Cl)cc2)c(=O)c2c(N)n[nH]c12	> 100 µM	> 100 µM	> 100 µM	> 100 µM	> 100 µM
COC(=O)CCCCC/C(=C\C(=O)C(Cl)(Cl)Cl)OC	> 100 µM	> 100 µM	> 100 µM	97.1 µM	57.7 µM
COc1ccc(C)cc1NC(=S)N/N=C/c1ccc(SC)cc1	> 100 µM	> 100 µM	> 100 µM	> 100 µM	–
COC(=O)C1=C(O)C(C(=O)OC)[C@]2(O)[C@H](C(=O)OC)[C@H]1C[C@@H](c1ccc(OC)cc1)[C@H]2C(=O)OC (stereo not given in full)	> 100 µM	37.6 µM	> 100 µM	> 100 µM	> 100 µM
COCN1C(=O)[C@@H]2CCCN2C(=O)c2cc([N+](=O)[O-])ccc21	> 100 µM	> 100 µM	> 100 µM	> 100 µM	> 100 µM
Cc1cn(C2CC(N=[N+]=[N-])C(CO[Si](C)(C)C(C)(C)C)O2)c(=O)[nH]c1=O (stereo not given)	75.6 µM	48 µM	40.2 µM	40.1 µM	42 µM
CCOC(=O)CCC(NC(=O)OCc1ccccc1)C(=O)NC(CCC(=O)OCC)C(=O)NC(CCC(=O)OCC)C(=O)NC(CCC(=O)OCC)C(=O)NC(CCC(=O)OCC)C(=O)OCC (stereo not given)	> 100 µM	> 100 µM	> 100 µM	> 100 µM	> 100 µM
Cn1c(=O)n(CC(Br)CBr)c(=O)n(CC(Br)CBr)c1=O (stereo not given)	> 100 µM	> 100 µM	> 100 µM	> 100 µM	> 100 µM
Nc1c(C(=O)c2ccccc2)[nH]c(NCc2ccccc2)c1C(=S)Nc1ccccc1	> 100 µM	> 100 µM	> 100 µM	> 100 µM	> 100 µM
O=[N+]([O-])C1(C2([N+](=O)[O-])CCCC2)CCCC1	> 100 µM	–	> 100 µM	> 100 µM	> 100 µM
CCOC(=O)c1c(SCCO)n(-c2ccccc2)c(=S)n(-c2ccccc2)c1=O	> 100 µM	> 100 µM	> 100 µM	> 100 µM	> 100 µM
CC/C(Cl)=N\OC(=O)Nc1ccc(C#N)cc1	30.7 µM	27.4 µM	32 µM	57.8 µM	29.8 µM
CC(C)(C)OC(=O)NC(Cc1ccc([N+](=O)[O-])cc1)C(=O)NC(CCCCNC(=O)OCc1ccccc1)C(=O)ON1C(=O)CCC1=O (stereo not given)	–	> 100 µM	> 100 µM	> 100 µM	–
CC(Cc1ccc(O)c(O)c1)C(C)Cc1ccc(O)c(O)c1 (stereo not given)	41.2 µM	33.5 µM	46.6 µM	52.5 µM	37.9 µM
Nc1ncc(Cc2nc3ccccc3s2)s1	> 100 µM	> 100 µM	–	96.4 µM	> 100 µM
O/N=C\c1cc(O)c(O)c(/C=N/O)c1	> 100 µM	80.3 µM	> 100 µM	> 100 µM	> 100 µM
CC(C)(C)/C(O)=C\c1nc2cc(C(F)(F)F)ccc2[nH]c1=O	> 100 µM	> 100 µM	> 100 µM	> 100 µM	> 100 µM
COc1cc2c(c(OC)c1OC)C(=O)CC2N (stereo not given)	–	> 100 µM	> 100 µM	> 100 µM	> 100 µM
